Our source for the remaining binding values is paper PMC7486443, “Generation of Phenothiazine with Potent Anti-TLK1 Activity for Prostate Cancer Therapy” (iScience, 2020).

Some targets named below: CAMK1G (Homo sapiens, UniProt Q96NX5); INSRR (Homo sapiens, UniProt P14616); CLK4 (Homo sapiens, UniProt Q9HAZ1); BRSK2 (Homo sapiens, UniProt Q8IWQ3); TRPM6 (Homo sapiens, UniProt Q9BX84); RIPK2 (Homo sapiens, UniProt O43353); MTOR (Homo sapiens, UniProt P42345); MYLK (Homo sapiens, UniProt Q15746); FLT4 (Homo sapiens, UniProt P35916); ACVR2B (Homo sapiens, UniProt Q13705); EGFR(E746-A750del) (Homo sapiens, UniProt P00533, DEL746-750); ACVR1 (Homo sapiens, UniProt Q04771); MET (Homo sapiens, UniProt P08581).

What all share (test): biochemical
Common to all, as to design: DiscoverX KINOMEscan scanMAX competition binding panel, single concentration, percent of control; remaining binding: dose or concentration left out as unconfirmed
What all share (conditions): KINOMEscan binding, percent of control; read-out: Table S4_SCANMAX REPORT - related to Fig. 1 / Percent Control

The next assay deals with T1, PFTK1 (Homo sapiens, UniProt O94921).
T1 construct: gene CDK14
T1 sequence (O94921 whole entry): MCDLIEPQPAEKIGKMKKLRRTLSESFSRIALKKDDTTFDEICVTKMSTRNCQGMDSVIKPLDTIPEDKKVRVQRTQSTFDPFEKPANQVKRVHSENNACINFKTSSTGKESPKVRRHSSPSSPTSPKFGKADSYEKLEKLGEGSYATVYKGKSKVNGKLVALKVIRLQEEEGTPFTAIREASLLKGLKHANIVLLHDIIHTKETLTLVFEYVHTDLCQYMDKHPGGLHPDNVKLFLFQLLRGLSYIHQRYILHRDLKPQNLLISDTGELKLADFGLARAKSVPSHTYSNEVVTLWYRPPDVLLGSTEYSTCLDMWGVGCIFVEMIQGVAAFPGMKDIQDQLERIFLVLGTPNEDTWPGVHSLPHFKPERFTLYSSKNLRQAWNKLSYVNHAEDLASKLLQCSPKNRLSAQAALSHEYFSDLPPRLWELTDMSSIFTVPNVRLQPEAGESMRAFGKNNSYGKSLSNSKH

Another assay addresses T2, MEK2 (Homo sapiens, UniProt P36507).
T2 construct: gene MAP2K2

For assay [1], the target named is T3, ABL1(Y253F)-phosphorylated (Homo sapiens, UniProt P00519, Y253F).
T3 construct: phosphorylated

A further assay has as its target T4, NDR1 (Homo sapiens, UniProt Q15208).
T4 construct: gene STK38

In the next assay the target is T5, IKK-epsilon (Homo sapiens, UniProt Q14164).
T5 construct: gene IKBKE
T5 sequence (Q14164 whole entry): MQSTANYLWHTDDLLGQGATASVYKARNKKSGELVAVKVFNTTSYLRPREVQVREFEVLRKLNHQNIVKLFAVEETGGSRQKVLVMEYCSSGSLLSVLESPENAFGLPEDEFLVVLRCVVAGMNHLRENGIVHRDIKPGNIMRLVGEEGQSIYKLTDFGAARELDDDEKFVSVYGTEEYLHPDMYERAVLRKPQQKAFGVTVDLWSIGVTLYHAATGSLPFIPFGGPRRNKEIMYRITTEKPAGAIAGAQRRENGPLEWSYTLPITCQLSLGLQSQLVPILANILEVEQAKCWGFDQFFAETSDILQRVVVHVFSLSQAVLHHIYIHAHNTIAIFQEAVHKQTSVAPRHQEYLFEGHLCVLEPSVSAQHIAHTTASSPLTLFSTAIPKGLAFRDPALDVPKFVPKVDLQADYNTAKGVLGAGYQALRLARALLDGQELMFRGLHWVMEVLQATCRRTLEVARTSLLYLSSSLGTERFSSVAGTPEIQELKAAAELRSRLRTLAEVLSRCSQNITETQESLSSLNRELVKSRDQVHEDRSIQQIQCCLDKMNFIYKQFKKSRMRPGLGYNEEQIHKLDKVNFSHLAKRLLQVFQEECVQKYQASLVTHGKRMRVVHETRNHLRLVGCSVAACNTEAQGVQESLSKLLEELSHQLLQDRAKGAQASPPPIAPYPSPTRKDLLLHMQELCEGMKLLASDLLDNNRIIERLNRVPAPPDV

For the next assay, the target named is T6, TRKB (Homo sapiens, UniProt Q16620).
T6 construct: gene NTRK2

Chain of MYLK (Q15746 whole entry): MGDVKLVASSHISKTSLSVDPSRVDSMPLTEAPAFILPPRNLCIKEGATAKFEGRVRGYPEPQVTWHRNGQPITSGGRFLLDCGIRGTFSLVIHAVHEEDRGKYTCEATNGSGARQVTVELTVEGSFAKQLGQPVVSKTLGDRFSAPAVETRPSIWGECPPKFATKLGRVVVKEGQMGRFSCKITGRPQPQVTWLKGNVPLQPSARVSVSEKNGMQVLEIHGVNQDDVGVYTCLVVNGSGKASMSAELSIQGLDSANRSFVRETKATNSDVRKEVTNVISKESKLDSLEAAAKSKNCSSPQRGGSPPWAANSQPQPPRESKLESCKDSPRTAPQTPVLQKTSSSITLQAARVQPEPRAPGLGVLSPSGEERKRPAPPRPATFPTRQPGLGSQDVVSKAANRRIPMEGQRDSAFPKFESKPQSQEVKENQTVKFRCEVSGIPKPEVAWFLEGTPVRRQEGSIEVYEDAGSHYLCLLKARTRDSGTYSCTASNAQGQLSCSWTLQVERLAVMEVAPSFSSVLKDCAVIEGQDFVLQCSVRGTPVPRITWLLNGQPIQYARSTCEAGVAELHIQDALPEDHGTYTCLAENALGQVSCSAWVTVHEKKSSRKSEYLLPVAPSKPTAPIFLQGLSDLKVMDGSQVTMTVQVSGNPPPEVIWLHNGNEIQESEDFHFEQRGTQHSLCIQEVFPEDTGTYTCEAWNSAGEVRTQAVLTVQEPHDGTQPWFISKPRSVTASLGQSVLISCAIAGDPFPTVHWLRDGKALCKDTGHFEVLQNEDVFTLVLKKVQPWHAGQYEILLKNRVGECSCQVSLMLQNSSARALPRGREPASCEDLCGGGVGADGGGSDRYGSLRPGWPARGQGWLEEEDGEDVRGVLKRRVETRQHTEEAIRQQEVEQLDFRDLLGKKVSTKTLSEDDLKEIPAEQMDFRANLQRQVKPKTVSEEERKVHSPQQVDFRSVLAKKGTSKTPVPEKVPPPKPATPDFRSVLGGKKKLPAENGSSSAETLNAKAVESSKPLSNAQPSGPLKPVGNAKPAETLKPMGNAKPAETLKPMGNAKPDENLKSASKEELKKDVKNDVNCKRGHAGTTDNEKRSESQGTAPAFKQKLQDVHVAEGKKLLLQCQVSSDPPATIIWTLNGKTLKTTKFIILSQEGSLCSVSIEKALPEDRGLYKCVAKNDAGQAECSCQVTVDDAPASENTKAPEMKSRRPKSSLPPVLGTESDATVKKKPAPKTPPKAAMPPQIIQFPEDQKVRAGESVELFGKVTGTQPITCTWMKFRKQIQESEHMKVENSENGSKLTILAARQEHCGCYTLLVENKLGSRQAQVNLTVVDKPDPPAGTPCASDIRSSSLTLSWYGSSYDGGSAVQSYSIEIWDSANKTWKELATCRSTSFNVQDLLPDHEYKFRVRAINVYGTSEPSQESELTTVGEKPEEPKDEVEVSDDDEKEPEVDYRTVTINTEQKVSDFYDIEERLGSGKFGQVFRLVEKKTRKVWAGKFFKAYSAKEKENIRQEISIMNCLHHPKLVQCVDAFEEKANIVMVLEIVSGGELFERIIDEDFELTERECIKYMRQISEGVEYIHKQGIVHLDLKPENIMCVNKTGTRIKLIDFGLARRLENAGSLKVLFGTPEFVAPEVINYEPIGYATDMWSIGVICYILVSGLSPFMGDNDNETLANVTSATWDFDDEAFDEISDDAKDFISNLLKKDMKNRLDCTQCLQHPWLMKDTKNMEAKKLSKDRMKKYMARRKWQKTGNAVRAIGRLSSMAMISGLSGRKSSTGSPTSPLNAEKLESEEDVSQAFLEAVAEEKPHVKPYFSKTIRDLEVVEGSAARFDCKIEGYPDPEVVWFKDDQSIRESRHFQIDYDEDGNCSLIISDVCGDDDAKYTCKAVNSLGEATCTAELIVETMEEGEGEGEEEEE
Chain of RIPK2 (O43353 whole entry): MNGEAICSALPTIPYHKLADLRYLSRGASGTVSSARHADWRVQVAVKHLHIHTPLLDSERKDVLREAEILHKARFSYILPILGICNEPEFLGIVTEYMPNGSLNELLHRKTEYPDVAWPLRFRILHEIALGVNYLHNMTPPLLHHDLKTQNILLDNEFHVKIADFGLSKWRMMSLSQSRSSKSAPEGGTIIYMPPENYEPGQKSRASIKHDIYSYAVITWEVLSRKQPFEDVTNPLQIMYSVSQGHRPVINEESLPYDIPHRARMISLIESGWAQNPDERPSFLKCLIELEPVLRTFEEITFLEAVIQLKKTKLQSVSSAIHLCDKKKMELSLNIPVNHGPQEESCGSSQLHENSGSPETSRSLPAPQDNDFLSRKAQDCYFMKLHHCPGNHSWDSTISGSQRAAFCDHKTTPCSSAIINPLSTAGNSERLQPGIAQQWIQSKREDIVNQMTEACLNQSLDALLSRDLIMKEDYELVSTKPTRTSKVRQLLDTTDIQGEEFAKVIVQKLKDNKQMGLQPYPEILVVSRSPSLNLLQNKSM
Chain of BRSK2 (Q8IWQ3 whole entry): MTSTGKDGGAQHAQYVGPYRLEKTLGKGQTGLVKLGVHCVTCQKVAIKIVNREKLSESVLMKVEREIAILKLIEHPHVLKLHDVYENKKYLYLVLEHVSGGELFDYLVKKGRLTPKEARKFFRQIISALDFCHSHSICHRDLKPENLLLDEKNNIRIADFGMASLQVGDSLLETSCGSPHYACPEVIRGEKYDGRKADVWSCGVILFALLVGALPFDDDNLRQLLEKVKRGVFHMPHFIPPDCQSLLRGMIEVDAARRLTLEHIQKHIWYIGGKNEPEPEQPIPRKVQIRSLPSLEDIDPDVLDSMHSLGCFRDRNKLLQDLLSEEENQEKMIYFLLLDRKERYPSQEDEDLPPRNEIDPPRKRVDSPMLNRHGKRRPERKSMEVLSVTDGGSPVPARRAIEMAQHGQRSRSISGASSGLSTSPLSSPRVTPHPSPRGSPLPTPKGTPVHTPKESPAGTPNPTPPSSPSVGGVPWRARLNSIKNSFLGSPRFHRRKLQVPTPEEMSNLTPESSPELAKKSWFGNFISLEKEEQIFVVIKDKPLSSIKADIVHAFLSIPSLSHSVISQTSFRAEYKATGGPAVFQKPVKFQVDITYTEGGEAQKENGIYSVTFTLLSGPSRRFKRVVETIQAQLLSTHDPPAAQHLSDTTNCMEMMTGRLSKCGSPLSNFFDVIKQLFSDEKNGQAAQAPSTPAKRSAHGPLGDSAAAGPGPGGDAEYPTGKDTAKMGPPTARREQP
T2 sequence (P36507 whole entry): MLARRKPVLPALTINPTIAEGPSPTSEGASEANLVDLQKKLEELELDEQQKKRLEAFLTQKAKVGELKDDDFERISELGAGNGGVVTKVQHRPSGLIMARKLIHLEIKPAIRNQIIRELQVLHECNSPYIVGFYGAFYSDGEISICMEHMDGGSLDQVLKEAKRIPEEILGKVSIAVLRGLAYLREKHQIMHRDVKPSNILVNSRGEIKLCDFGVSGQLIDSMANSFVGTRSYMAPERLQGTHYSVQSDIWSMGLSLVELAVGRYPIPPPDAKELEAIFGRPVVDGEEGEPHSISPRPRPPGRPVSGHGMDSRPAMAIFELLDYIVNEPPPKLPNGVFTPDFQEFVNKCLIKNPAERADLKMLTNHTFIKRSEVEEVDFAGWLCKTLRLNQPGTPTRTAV

As to `c1ccc2c(c1)Sc1ccccc1N2CCN1CCOCC1` [J54], the remaining binding at CAMK1G turned out to be 100%; at PFTK1, 100%; at MEK2 it was 100%; at INSRR, 85%; at CLK4 it was 100%; in [1], 79%. The remaining binding at BRSK2 is 100%; at TRPM6, 100%; at RIPK2, 100%; on MYLK, 97%; at FLT4 it was 96%; on ACVR2B, 86%. Further, the remaining binding worked out at 76% at EGFR(E746-A750del); 94% at ACVR1; 100% on NDR1; 92% on MET; 75% at IKK-epsilon; 89% on TRKB. In addition, the remaining binding at 15 µM at MTOR amounted to 100%.
